Tests used:
Type in all cases: cell-based
[1] = system: Leishmania donovani axenic amastigote; assay: In vitro assay for growth inhibition of Leishmania donovani axenic amastigote (Cell TiterGlo luminescence); settings: Leishmania donovani, L. donovani axenic amastigotes in vitro; read-out: L. donovani amastigotes EC50
In short: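 Compound-treated wells received 9600 axenic amastigotes in RPMI 1640-based medium at pH 5.5 (37 °C, 5% CO2). Growth measured as ATP luminescence (CellTiter-Glo) after 2-day incubation; DMSO and reference compounds served as controls.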

[2] = system: Trypanosoma brucei brucei (Lister 427) strain; assay: Assay for growth inhibition against Trypanosoma brucei brucei (Cell TiterGlo ATP luminescence); settings: Trypanosoma brucei, T. brucei brucei (Lister 427); read-out: T. Brucei (HAT) EC50
Procedure: Assay for Growth Inhibition Against Trypanosoma brucei brucei
The proliferation is quantified by the addition of Cell TiterGlo® (Promega®) a luminescent cell viability assay that measures the number of viable cells in culture based on the quantification of cellular ATP amount, which is an indicator of metabolically active cells.
Trypanosoma brucei brucei (Lister 427) strain was grown in Hirumi 9 (HMI-9) media supplemented with 10% v/v fetal bovine serum (FBS) and 10% v/v serum plus. For measurement of cell proliferation inhibition, test compounds were three fold serially diluted in duplicates to 384-well white plates, resulting in 10 dilutions for each compound. A volume of 40 μL of T. b. brucei culture (10,000 parasites/mL) was added to each well, and the assay plates were incubated at 37° C. for 2 days in a CO2 incubator. Growth inhibition was monitored by measuring ATP levels, which, is used as a surrogate marker for growth. Relative luminescence units were measured using TECAN® M1000 after 30 min of adding 40 μl of Cell TiterGlo®. IC50 values were determined by analyzing the data using HELIOS software. IC50 is defined as the lowest concentration of the compound that inhibited 50% growth of the T. b. brucei wild type strain compared to untreated controls.

[3] = system: Trypanosoma cruzi amastigotes cultured in 3T3 fibroblast cells; assay: Assay for growth inhibition of kinetoplastid parasite Trypanosoma cruzi (beta-galactosidase Tulahuen strain, CPRG readout); settings: Trypanosoma cruzi, Fibroblast, T. cruzi amastigotes in 3T3 fibroblast cells; read-out: Buckner infectious T. cruzi EC50
In short: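 3T3 fibroblasts (1,000 cells/well) plated overnight, treated with compound in DMSO, then infected with 10,000 Lac-Z-expressing Tulahuen trypomastigotes. After 6 days, 0.6 mM CPRG with 0.6% NP-40 added for 2 h at room temperature; absorbance gives relative intracellular amastigote numbers. Benznidazole and nifurtimox serve as positive controls.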

O=C(Nc1ccc(F)c(-n2cc3cc(N4CCS(=O)(=O)CC4)cnc3n2)c1)N1CC(F)C1 [Compound 178, N-{3-[5-(1,1-dioxo-1$|^6,4-thiomorpholin-4-yl)-2H-pyrazolo[3,4-b]pyridin-2-yl]-4-fluorophenyl}-3-fluoroazetidine-1-carboxamide]
EC50 [1]: 0.16 µM
EC50 [2]: 0.036 µM
EC50 [3]: 1.6 µM

CN1CCN(c2cnc3nn(-c4cc(NC(=O)N5CC(F)C5)ccc4F)cc3c2)CC1 [Compound 179, 3-fluoro-N-{4-fluoro-3-[5-(4-methylpiperazin-1-yl)-2H-pyrazolo[3,4-b]pyridin-2-yl]phenyl}azetidine-1-carboxamide]
EC50 [1]: 0.41 µM
EC50 [2]: < 0.023 µM
EC50 [3]: 0.043 µM

O=C(Nc1ccc(F)c(-n2cc3cc(N4CCn5ccnc5C4)cnc3n2)c1)N1CC(F)C1 [Compound 180, 3-fluoro-N-[4-fluoro-3-(5-{5H,6H,7H,8H-imidazo[1,2-a]pyrazin-7-yl}-2H-pyrazolo[3,4-b]pyridin-2-yl)phenyl}azetidine-1-carboxamide]
EC50 [1]: 0.55 µM
EC50 [2]: 0.038 µM
EC50 [3]: 3.9 µM

O=C(Nc1ccc(F)c(-n2cc3cc(N4CC(O)C4)cnc3n2)c1)N1CC(F)C1 [Compound 181, 3-fluoro-N-{4-fluoro-3-[5-(3-hydroxyazetidin-1-yl)-2H-pyrazolo[3,4-b]pyridin-2-yl]phenyl}azetidine-1-carboxamide]
EC50 [1]: 0.025 µM
EC50 [2]: < 0.023 µM
EC50 [3]: 0.82 µM

O=C(Nc1ccc(F)c(-n2cc3cc(-c4ccncc4)cnc3n2)c1)N1CC(F)C1 [Compound 182, 3-fluoro-N-(4-fluoro-3-(5-(pyridin-4-yl)-2H-pyrazolo[3,4-b]pyridin-2-yl)phenyl)azetidine-1-carboxamide]
EC50 [1]: 0.0076 µM
EC50 [2]: < 0.023 µM
EC50 [3]: 0.0067 µM

O=C(Nc1ccc(F)c(-n2cc3cc(N4CCC5(COC5)C4)cnc3n2)c1)N1CC(F)C1 [Compound 183, 3-fluoro-N-[4-fluoro-3-(5-{2-oxa-6-azaspiro[3.4]octan-6-yl}-2H-pyrazolo[3,4-b]pyridin-2-yl)phenyl}azetidine-1-carboxamide]
EC50 [1]: 0.012 µM
EC50 [2]: < 0.023 µM
EC50 [3]: 0.055 µM

[2H]C([2H])([2H])N(C(=O)Nc1ccc(F)c(-n2cc3cc(C(C)C)cnc3n2)c1)C([2H])([2H])[2H] [Compound 219, 1-{4-fluoro-3-[5-(propan-2-yl)-2H-pyrazolo[3,4-b]pyridin-2-yl]phenyl}-3,3-bis(^2H3)methylurea]
EC50 [1]: 0.034 µM
EC50 [2]: 0.017 µM
EC50 [3]: 0.015 µM

CC(C)c1cnc2nn(-c3cc(NC(=O)N4CCC5(CC5)C4)ccc3F)cc2c1 [Compound 220, N-{4-fluoro-3-[5-(propan-2-yl)-2H-pyrazolo[3,4-b]pyridin-2-yl]phenyl}-5-azaspiro[2.4]heptane-5-carboxamide]
EC50 [1]: 0.015 µM
EC50 [2]: 0.042 µM
EC50 [3]: 0.006 µM

CC(C)c1cnc2nn(-c3cc(NC(=O)N4CC[C@@H](C)C4)ccc3F)cc2c1 [Compound 221, (3R)-N-{4-fluoro-3-[5-(propan-2-yl)-2H-pyrazolo[3,4-b]pyridin-2-yl]phenyl}-3-methylpyrrolidine-1-carboxamide]
EC50 [1]: 0.003 µM
EC50 [2]: 0.009 µM
EC50 [3]: 0.001 µM

CC(C)c1cnc2nn(-c3cc(NC(=O)N4CC5(CC5)C4)ccc3F)cc2c1 [Compound 222, N-{4-fluoro-3-[5-(propan-2-yl)-2H-pyrazolo[3,4-b]pyridin-2-yl]phenyl}-5-azaspiro[2.3]hexane-5-carboxamide]
EC50 [1]: 0.08 µM
EC50 [2]: 0.073 µM
EC50 [3]: 0.045 µM

CC(C)c1cnc2nn(-c3cc(NC(=O)N4C[C@H]5C[C@H]5C4)ccc3F)cc2c1 [Compound 223, (1R,5S)-N-{4-fluoro-3-[5-(propan-2-yl)-2H-pyrazolo[3,4-b]pyridin-2-yl]phenyl}-3-azabicyclo[3.1.0]hexane-3-carboxamide]
EC50 [1]: 0.082 µM
EC50 [2]: 0.064 µM
EC50 [3]: 0.037 µM

CCN(C)C(=O)Nc1ccc(F)c(-n2cc3cc(C(C)C)cnc3n2)c1 [Compound 224, 3-ethyl-1-{4-fluoro-3-[5-(propan-2-yl)-2H-pyrazolo[3,4-b]pyridin-2-yl]phenyl}-3-methylurea]
EC50 [1]: 0.111 µM
EC50 [2]: 0.067 µM
EC50 [3]: 0.046 µM

CO[C@@H]1CCN(C(=O)Nc2ccc(F)c(-n3cc4cc(C(C)C)cnc4n3)c2)C1 [Compound 225, (3R)-N-{4-fluoro-3-[5-(propan-2-yl)-2H-pyrazolo[3,4-b]pyridin-2-yl]phenyl}-3-methoxypyrrolidine-1-carboxamide]
EC50 [1]: 0.037 µM
EC50 [2]: 0.238 µM
EC50 [3]: 0.05 µM

CC(C)c1cnc2nn(-c3cc(NC(=O)N4CC5(CCC5)C4)ccc3F)cc2c1 [Compound 226, N-{4-fluoro-3-[5-(propan-2-yl)-2H-pyrazolo[3,4-b]pyridin-2-yl]phenyl}-2-azaspiro[3.3]heptane-2-carboxamide]
EC50 [1]: 0.134 µM
EC50 [2]: 0.343 µM
EC50 [3]: 0.129 µM

CC(C)c1cnc2nn(-c3cc(NC(=O)N(C)CC(F)(F)F)ccc3F)cc2c1 [Compound 227, 1-{4-fluoro-3-[5-(propan-2-yl)-2H-pyrazolo[3,4-b]pyridin-2-yl]phenyl}-3-methyl-3-(2,2,2-trifluoroethyl)urea]
EC50 [1]: 0.03 µM
EC50 [2]: 0.059 µM
EC50 [3]: 0.011 µM

CC(C)c1cnc2nn(-c3cc(NC(=O)N(C)C)ccc3F)cc2c1 [Compound 228, 1-{4-fluoro-3-[5-(propan-2-yl)-2H-pyrazolo[3,4-b]pyridin-2-yl]phenyl}-3,3-dimethylurea]
EC50 [1]: 0.031 µM
EC50 [2]: 0.03 µM
EC50 [3]: 0.01 µM

CC(C)c1cnc2nn(-c3cc(NC(=O)N4CCN5CCC4CC5)ccc3F)cc2c1 [Compound 229, N-{4-fluoro-3-[5-(propan-2-yl)-2H-pyrazolo[3,4-b]pyridin-2-yl]phenyl}-1,4-diazabicyclo[3.2.2]nonane-4-carboxamide]
EC50 [1]: 25 µM
EC50 [2]: 12.5 µM
EC50 [3]: 15.6 µM

CC1(O)CN(c2cnc3nn(-c4cc(NC(=O)N5CC(F)C5)ccc4F)cc3c2)C1 [Compound 251, 3-fluoro-N-{4-fluoro-3-[5-(3-hydroxy-3-methylazetidin-1-yl)-2H-pyrazolo[3,4-b]pyridin-2-yl]phenyl}azetidine-1-carboxamide]
EC50 [1]: 0.024 µM
EC50 [2]: 0.005 µM
EC50 [3]: 0.367 µM

O=C(Nc1ccc(F)c(-n2cc3cc(N4CCN(CC(F)(F)F)CC4)cnc3n2)c1)N1CC(F)(F)C1 [Compound 252, 3,3-difluoro-N-(4-fluoro-3-{5-[4-(2,2,2-trifluoroethyl)piperazin-1-yl]-2H-pyrazolo[3,4-b]pyridin-2-yl}phenyl)azetidine-1-carboxamide]
EC50 [1]: 0.183 µM
EC50 [2]: 0.005 µM
EC50 [3]: 0.022 µM

O=C(Nc1ccc(F)c(-n2cc3cc(N4CCN(CC(F)(F)F)CC4)cnc3n2)c1)N1CC[C@@H](F)C1 [Compound 253, (3R)-3-fluoro-N-(4-fluoro-3-{5-[4-(2,2,2-trifluoroethyl)piperazin-1-yl]-2H-pyrazolo[3,4-b]pyridin-2-yl}phenyl)pyrrolidine-1-carboxamide]
EC50 [1]: 0.003 µM
EC50 [2]: 0.005 µM
EC50 [3]: 0.004 µM

O=C(Nc1ccc(F)c(-n2cc3cc(-n4cccn4)cnc3n2)c1)N1CC(F)C1 [Compound 319, 3-fluoro-N-{4-fluoro-3-[5-(1H-pyrazol-1-yl)-2H-pyrazolo[3,4-b]pyridin-2-yl]phenyl}azetidine-1-carboxamide]
EC50 [1]: 0.001 µM
EC50 [2]: 0.005 µM
EC50 [3]: 0.001 µM

O=C(Nc1ccc(F)c(-n2cc3cc(C(F)(F)F)cnc3n2)c1)N1CCC1 [Compound 320, N-{4-fluoro-3-[5-(trifluoromethyl)-2H-pyrazolo[3,4-b]pyridin-2-yl]phenyl}azetidine-1-carboxamide]
EC50 [1]: 0.008 µM
EC50 [2]: 0.005 µM
EC50 [3]: 0.002 µM

O=C(Nc1ccc(F)c(-n2cc3cc(C(F)(F)F)cnc3n2)c1)N1CC(F)C1 [Compound 321, 3-fluoro-N-{4-fluoro-3-[5-(trifluoromethyl)-2H-pyrazolo[3,4-b]pyridin-2-yl]phenyl}azetidine-1-carboxamide]
EC50 [1]: 0.018 µM
EC50 [2]: 0.005 µM
EC50 [3]: 0.011 µM

O=C(Nc1ccc(F)c(-n2cc3cc(C(F)(F)F)cnc3n2)c1)N1CC[C@@H](F)C1 [Compound 322, (3R)-3-fluoro-N-{4-fluoro-3-[5-(trifluoromethyl)-2H-pyrazolo[3,4-b]pyridin-2-yl]phenyl}pyrrolidine-1-carboxamide]
EC50 [1]: 0.012 µM
EC50 [2]: 0.005 µM
EC50 [3]: 0.003 µM
